Values after ≈ are worked out from the molar mass of the structure shown. Active and inactive are the calls of the source. The calls are words filed in the database; no cut-off is given here.
How the values were obtained:
CWR22R [1] = assay: In vivo degradation of Ki67 protein level in human 22Rv1 cells xenografted in BALB/c mouse tumor at 20 mg/kg, iv administered for 18 days by immunohistochemistry analysis; assay type: functional, organism-based; details: time 18.0 day
[2] = Half life in Sprague-Dawley rat at 2 mg/kg, iv by LC-MS/MS analysis; assay type: ADME, organism-based; details: in vivo
CWR22R [3] = assay: Antitumor activity against human 22Rv1 cells xenografted in BALB/c mouse assessed as tumor growth inhibition at 20 mg/kg, iv administered for 20 days relative to control; assay type: functional; details: 22Rv1, 480 h, time 20 day, read-out: TGI
CWR22R [4] = assay: Antitumor activity against human 22Rv1 cells assessed as complete reduction in colony formation incubated for 2 weeks by crystal violet staining based assay; assay type: functional, cell-based; details: dose 7.8-62.5 nM
[5] = Toxicity in BALB/c mouse xenografted with human 22Rv1 cells assessed as mortality at 10 to 20 mg/kg, iv administered for 20 days; assay type: organism-based, CWR22R; details: in vivo, 480 h, dose 10-20 mg/kg, time 20 day
[6] = Toxicity in BALB/c mouse xenografted with human 22Rv1 cells assessed as change in body weight at 10 mg/kg, iv administered for 20 days relative to control; assay type: organism-based, CWR22R; details: in vivo, 480 h, time 20 day
CWR22R [7] = assay: In vivo degradation of c-Myc expression in human 22Rv1 cells xenografted in BALB/c mouse tumor at 20 mg/kg, iv administered for 18 days by Western blotting analysis; assay type: functional, organism-based; details: time 18.0 day
[8] = target: Cyclin-dependent kinase 5 (Homo sapiens) (UniProt Q00535); assay: Induction of CDK5 protein degradation in human 22Rv1 cells at 500 nM incubated for 12 hrs by Western blotting analysis; assay type: cell-based
[9] = Metabolic stability in human liver microsome assessed as half life at 10 uM by LC-MS/MS analysis; assay type: ADME; details: liver microsomes
[10] = target: Cyclin-dependent kinase 2 (Homo sapiens) (UniProt P24941); assay: Induction of CDK2 protein degradation in human 22Rv1 cells at 500 nM incubated for 12 hrs by Western blotting analysis; assay type: cell-based
[11] = target: T1, Protein cereblon/Cyclin-dependent kinase 9 (Homo sapiens, UniProt P50750+Q96SW2); assay: PROTAC activity at CRBN/CDK9 in human 22Rv1 cells assessed as reduction in cyclin T1 expression at 0.1 to 1.5 uM incubated for 24 hrs by Western blotting analysis; assay type: cell-based; details: dose 0.1-1.5 µM
Target sequence in this assay (P50750 whole entry, looked up): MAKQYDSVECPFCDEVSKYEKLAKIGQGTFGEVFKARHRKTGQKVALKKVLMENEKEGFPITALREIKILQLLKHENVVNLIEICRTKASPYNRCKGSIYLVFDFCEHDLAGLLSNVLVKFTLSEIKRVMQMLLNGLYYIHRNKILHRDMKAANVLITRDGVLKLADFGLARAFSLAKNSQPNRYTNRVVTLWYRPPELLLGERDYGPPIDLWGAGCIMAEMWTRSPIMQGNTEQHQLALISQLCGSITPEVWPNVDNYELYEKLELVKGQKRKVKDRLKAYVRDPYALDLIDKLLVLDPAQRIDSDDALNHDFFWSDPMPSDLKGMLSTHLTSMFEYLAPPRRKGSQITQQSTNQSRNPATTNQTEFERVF
Target sequence in this assay (Q96SW2 whole entry, looked up): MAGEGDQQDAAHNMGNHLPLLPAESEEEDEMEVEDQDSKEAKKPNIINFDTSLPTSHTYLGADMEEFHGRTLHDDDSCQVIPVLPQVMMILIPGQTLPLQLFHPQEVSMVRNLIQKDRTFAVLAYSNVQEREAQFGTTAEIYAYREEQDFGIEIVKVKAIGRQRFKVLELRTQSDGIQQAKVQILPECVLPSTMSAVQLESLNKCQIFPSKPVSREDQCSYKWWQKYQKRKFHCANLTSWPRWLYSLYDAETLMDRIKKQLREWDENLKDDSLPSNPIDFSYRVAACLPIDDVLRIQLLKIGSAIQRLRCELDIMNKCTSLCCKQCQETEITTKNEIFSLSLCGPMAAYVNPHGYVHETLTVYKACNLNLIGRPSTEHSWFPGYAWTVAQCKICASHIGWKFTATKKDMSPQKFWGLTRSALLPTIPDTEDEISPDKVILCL

CWR22R [12] = assay: In vivo degradation of ARv7 expression in human 22Rv1 cells xenografted in BALB/c mouse tumor at 20 mg/kg, iv administered for 18 days by Western blotting analysis; assay type: functional, organism-based; details: time 18.0 day
[13] = Solubility of the compound in water at pH 6.0 by shake flask method; assay type: physicochemical
[14] = target: T1, Protein cereblon/Cyclin-dependent kinase 9; assay: PROTAC activity at CRBN/CDK9 in human 22Rv1 cells assessed as degradation of CDK9 protein at 100 nM by Western blotting analysis; assay type: cell-based; details: time 2-24 hrs, TDE = time-dependent effect
Target sequence in this assay (P50750 whole entry, looked up): as the sequence (P50750 whole entry, looked up) above
Target sequence in this assay (Q96SW2 whole entry, looked up): as the sequence (Q96SW2 whole entry, looked up) above

CWR22R [15] = assay: Antitumor activity against human 22Rv1 cells xenografted in BALB/c mouse assessed as tumor growth inhibition at 10 mg/kg, iv administered for 20 days relative to control; assay type: functional; details: 22Rv1, 480 h, time 20 day, read-out: TGI
[16] = Solubility of the compound in water at pH 7.4 by shake flask method; assay type: physicochemical
[17] = target: T1, Protein cereblon/Cyclin-dependent kinase 9; assay: PROTAC activity at CRBN/CDK9 in human 22Rv1 cells assessed as degradation of CDK9 protein at 100 nM incubated for 12 hrs by Western blotting analysis relative to control; assay type: cell-based
Target sequence in this assay (P50750 whole entry, looked up): as the sequence (P50750 whole entry, looked up) above
Target sequence in this assay (Q96SW2 whole entry, looked up): as the sequence (Q96SW2 whole entry, looked up) above

CWR22R [18] = assay: In vivo degradation of CDK9 expression in human 22Rv1 cells xenografted in BALB/c mouse tumor at 20 mg/kg, iv administered for 18 days by Western blotting analysis; assay type: functional, organism-based; details: time 18.0 day
[19] = Toxicity in BALB/c mouse xenografted with human 22Rv1 cells assessed as change in body weight at 20 mg/kg, iv administered for 20 days relative to control; assay type: organism-based, CWR22R; details: in vivo, 480 h, time 20 day
CWR22R [20] = assay: Antiproliferative activity against human 22Rv1 cells assessed as reduction in colony formation incubated for 2 weeks by crystal violet staining based assay; assay type: functional, cell-based; details: dose 7.8-62.5 nM
[21] = target: T1, Protein cereblon/Cyclin-dependent kinase 9; assay: PROTAC activity at CRBN/CDK9 in human 22Rv1 cells assessed as degradation of CDK9 protein at 0.1 uM incubated for 12 hrs in presence of LWT-111 by Western blotting analysis; assay type: cell-based
Target sequence in this assay (P50750 whole entry, looked up): as the sequence (P50750 whole entry, looked up) above
Target sequence in this assay (Q96SW2 whole entry, looked up): as the sequence (Q96SW2 whole entry, looked up) above

[22] = AUC in Sprague-Dawley rat at 2 mg/kg, iv by LC-MS/MS analysis; assay type: ADME, organism-based; details: in vivo
[23] = target: T1, Protein cereblon/Cyclin-dependent kinase 9; assay: PROTAC activity at CRBN/CDK9 in human 22Rv1 cells assessed as degradation of CDK9 protein at 500 nM incubated for 12 hrs by Western blotting analysis; assay type: cell-based
Target sequence in this assay (P50750 whole entry, looked up): as the sequence (P50750 whole entry, looked up) above
Target sequence in this assay (Q96SW2 whole entry, looked up): as the sequence (Q96SW2 whole entry, looked up) above

[24] = target: Cyclin-dependent kinase 4 (Homo sapiens) (UniProt P11802); assay: Induction of CDK4 protein degradation in human 22Rv1 cells at 500 nM incubated for 12 hrs by Western blotting analysis; assay type: cell-based
[25] = target: T1, Protein cereblon/Cyclin-dependent kinase 9; assay: PROTAC activity at CRBN/CDK9 in human 22Rv1 cells assessed as reduction in Mcl-1 expression incubated for 24 hrs by Western blotting analysis; assay type: cell-based; details: dose 0.1-1.5 µM
Target sequence in this assay (P50750 whole entry, looked up): as the sequence (P50750 whole entry, looked up) above
Target sequence in this assay (Q96SW2 whole entry, looked up): as the sequence (Q96SW2 whole entry, looked up) above

[26] = target: Cyclin-dependent kinase 6 (Homo sapiens) (UniProt Q00534); assay: Induction of CDK6 protein degradation in human 22Rv1 cells at 500 nM incubated for 12 hrs by Western blotting analysis; assay type: cell-based
[27] = target: T1, Protein cereblon/Cyclin-dependent kinase 9; assay: PROTAC activity at CRBN/CDK9 in human 22Rv1 cells assessed as degradation of CDK9 protein incubated for 12 hrs by Western blotting analysis; assay type: cell-based
[28] = target: T2, Cyclin-dependent kinase 9 (Homo sapiens, UniProt P50750); assay: Inhibition of CDK9 (unknown origin) at 20 nM in presence of ATP by ADP-Glo kinase assay relative to control
[29] = target: T1, Protein cereblon/Cyclin-dependent kinase 9; assay: PROTAC activity at CRBN/CDK9 in human 22Rv1 cells assessed as degradation of CDK9 protein at 0.1 uM incubated for 12 hrs in presence of thalidomide by Western blotting analysis; assay type: cell-based
[30] = target: T2, Cyclin-dependent kinase 9; assay: Inhibition of CDK9 (unknown origin) in presence of ATP by ADP-Glo kinase assay
CWR22R [31] = assay: In vivo degradation of c-Myc protein level in human 22Rv1 cells xenografted in BALB/c mouse tumor at 20 mg/kg, iv administered for 18 days by immunohistochemistry analysis; assay type: functional, organism-based; details: time 18.0 day
CWR22R [32] = assay: Antiproliferative activity against human 22Rv1 cells assessed as reduction in cell viability incubated for 72 hrs by SRB assay; assay type: functional, cell-based; details: 22Rv1, 72 h
[33] = target: Cyclin-dependent kinase 7 (Homo sapiens) (UniProt P50613); assay: Induction of CDK7 protein degradation in human 22Rv1 cells at 500 nM incubated for 12 hrs by Western blotting analysis; assay type: cell-based
CWR22R [34] = assay: In vivo degradation of CDK9 protein level in human 22Rv1 cells xenografted in BALB/c mouse tumor at 20 mg/kg, iv administered for 18 days by immunohistochemistry analysis; assay type: functional, organism-based; details: time 18.0 day
[35] = target: T1, Protein cereblon/Cyclin-dependent kinase 9; assay: PROTAC activity at CRBN/CDK9 in human 22Rv1 cells assessed as reduction in c-Myc expression incubated for 24 hrs by Western blotting analysis; assay type: cell-based; details: dose 0.1-1.5 µM
CWR22R [36] = assay: In vivo degradation of Mcl-1 expression in human 22Rv1 cells xenografted in BALB/c mouse tumor at 20 mg/kg, iv administered for 18 days by Western blotting analysis; assay type: functional, organism-based; details: time 18.0 day
[37] = target: T1, Protein cereblon/Cyclin-dependent kinase 9; assay: PROTAC activity at CRBN/CDK9 in human 22Rv1 cells assessed as degradation of CDK9 protein at 0.1 uM incubated for 12 hrs in presence of MG132 by Western blotting analysis; assay type: cell-based
[38] = target: T1, Protein cereblon/Cyclin-dependent kinase 9; assay: PROTAC activity at CRBN/CDK9 in human 22Rv1 cells assessed as reduction in RNAPII-ser 2 phosphorylation incubated for 24 hrs by Western blotting analysis; assay type: cell-based; details: dose 0.1-1.5 µM
CWR22R [39] = assay: Antitumor activity against human 22Rv1 cells assessed as complete reduction in colony formation at 60 nM incubated for 2 weeks by crystal violet staining based assay; assay type: functional; set-up: scale not given: the % may be the effect or the level left
[40] = Apparent volume of distribution in Sprague-Dawley rat at 2 mg/kg, iv by LC-MS/MS analysis; assay type: ADME, organism-based; details: in vivo, read-out: Vz

T2 sequence (P50750 whole entry): as the sequence (P50750 whole entry, looked up) above
Chain of Cyclin-dependent kinase 4 (Homo sapiens) (P11802 whole entry): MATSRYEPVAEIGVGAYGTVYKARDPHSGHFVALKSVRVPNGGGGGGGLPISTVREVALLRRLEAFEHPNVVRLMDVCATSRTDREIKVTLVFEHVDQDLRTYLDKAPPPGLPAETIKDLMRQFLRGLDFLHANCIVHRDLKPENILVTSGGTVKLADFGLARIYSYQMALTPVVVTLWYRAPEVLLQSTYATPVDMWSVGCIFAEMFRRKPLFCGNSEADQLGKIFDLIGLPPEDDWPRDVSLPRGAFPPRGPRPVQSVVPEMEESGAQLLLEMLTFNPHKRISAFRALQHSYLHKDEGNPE
Chain of Cyclin-dependent kinase 6 (Homo sapiens) (Q00534 whole entry): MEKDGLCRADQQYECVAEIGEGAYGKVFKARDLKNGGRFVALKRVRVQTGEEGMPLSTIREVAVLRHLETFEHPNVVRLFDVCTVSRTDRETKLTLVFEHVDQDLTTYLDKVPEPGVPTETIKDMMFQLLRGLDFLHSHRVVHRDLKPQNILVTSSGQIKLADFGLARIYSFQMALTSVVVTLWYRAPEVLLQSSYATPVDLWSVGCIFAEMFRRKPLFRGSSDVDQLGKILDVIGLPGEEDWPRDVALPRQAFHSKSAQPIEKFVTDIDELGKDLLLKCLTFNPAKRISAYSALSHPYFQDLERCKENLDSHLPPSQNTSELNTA
Chain of Cyclin-dependent kinase 5 (Homo sapiens) (Q00535 whole entry, looked up): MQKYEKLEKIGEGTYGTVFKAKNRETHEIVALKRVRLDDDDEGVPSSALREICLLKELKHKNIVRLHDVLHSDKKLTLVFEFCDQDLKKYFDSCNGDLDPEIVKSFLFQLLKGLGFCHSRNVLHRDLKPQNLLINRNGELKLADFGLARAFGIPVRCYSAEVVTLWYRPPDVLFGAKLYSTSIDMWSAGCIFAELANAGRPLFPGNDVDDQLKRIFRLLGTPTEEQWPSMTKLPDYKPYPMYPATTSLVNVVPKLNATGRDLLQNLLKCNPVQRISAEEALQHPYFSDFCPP
Chain of Cyclin-dependent kinase 7 (Homo sapiens) (P50613 whole entry): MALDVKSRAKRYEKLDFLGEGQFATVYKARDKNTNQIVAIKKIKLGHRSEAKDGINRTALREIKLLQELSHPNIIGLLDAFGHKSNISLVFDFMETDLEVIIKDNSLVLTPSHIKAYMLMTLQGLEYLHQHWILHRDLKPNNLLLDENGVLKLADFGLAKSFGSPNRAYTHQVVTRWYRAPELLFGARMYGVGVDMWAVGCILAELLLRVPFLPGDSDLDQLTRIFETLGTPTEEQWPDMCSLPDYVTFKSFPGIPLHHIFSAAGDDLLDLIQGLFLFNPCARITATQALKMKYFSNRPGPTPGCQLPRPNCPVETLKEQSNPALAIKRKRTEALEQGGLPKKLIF

COc1cc(O)c2c(=O)cc(-c3ccc(N4CCN(CC5CCN(c6ccc7c(c6)C(=O)N(C6CCC(=O)NC6=O)C7=O)CC5)CC4)cc3)oc2c1C1=CCN(C)CC1 (stereo unspecified)
Activity (CWR22R [1]): Active
half-life [2]: 11.1 h
inhibition in vivo at 20 mg/kg (CWR22R [3]): 75.1%
Activity (CWR22R [4]): Dose-Dependent Effect
Activity [5]: Non-Toxic
Activity [6]: 12.5%
Activity (CWR22R [7]): Active
Activity [8]: inactive
half-life at 10 µM [9]: 1.62 h
Activity [10]: inactive
Activity [11]: Active
Activity (CWR22R [12]): Active
solubility thermodynamic [13]: 125 µg/mL (≈ 156 µM)
Activity [14]: Tde
inhibition in vivo at 10 mg/kg (CWR22R [15]): 65.7%
solubility thermodynamic [16]: 53 µg/mL (≈ 66.2 µM)
Activity [17]: 80%
Activity (CWR22R [18]): Active
Activity [19]: 15.3%
Activity (CWR22R [20]): Dose-Dependent Effect
Activity [21]: inactive
AUC [22]: 681 ng·h/mL
Activity [23]: 100%
Activity [24]: inactive
Activity [25]: Dose-Dependent Effect
Activity [26]: inactive
Activity [27]: Dose-Dependent Effect
DC50 [27]: 43 nM
inhibition [28]: 85.6%
Activity [29]: inactive
IC50 [30]: 3.3 nM
Activity (CWR22R [31]): Active
IC50 (CWR22R [32]): 60 nM
Activity [33]: inactive
Activity (CWR22R [34]): Active
Activity [35]: Dose-Dependent Effect
Activity (CWR22R [36]): Active
Activity [37]: inactive
Activity [38]: Dose-Dependent Effect
Activity (CWR22R [39]): 100%
Vd [40]: 22.6 L/kg
